Key:
[1] = test system: mouse model of hyperuricemia; assay: Uric acid level in serum of hyperuricemia model mice; type: in vivo, Kunming mice; details: xanthine i.p. hyperuricemia mice, dose 0.0002 g/10 g, once daily 11 days, mean ± SD
Procedure: (§1) The mouse model of hyperuricemia was established by intraperitoneal injection of xanthine to increase the content of uric acid precursor in the body and thus to increase the generation of uric acid. The mouse model of hyperuricemia was administered via gavage with the total flavonoid extract from Gynura formosana Kitam. The inhibition rates of uric acid and […] in serum of the mouse and the inhibition rate of the activity of xanthine oxidase in the liver of the mouse were recorded to study the effect of the total flavonoid extract on symptoms of gout caused by hyperuricemia.
(§2) The high, medium and low dose groups of the total flavonoid extract were administered via gavage with an aqueous solution of total flavonoid extract from Gynura formosana Kitam. at a dose of 24 mg/10 mL, 12 mg/10 mL, 6 mg/10 mL, respectively. The model group was administered an equal-volume of saline. All of the drugs were administered once daily for continuous 11 days.
(§3) After 1 hour at last administration, the mice received 10% xanthine dissolved in 0.8% CMC-Na via intraperitoneal injection. After 0.5 hours of modeling, the mice were sacrificed and blood was taken from eyeballs. Then the mice were dissected immediately and livers were taken and stored at a low temperature. […]
(§4) The index was calculated by referring to the instructions. […]

[2] = test system: mouse model of hyperuricemia; assay: Creatinine level in serum of hyperuricemia model mice; type: in vivo, Kunming mice; details: dose 0.0002 g/10 g, once daily 11 days, mean ± SD
Procedure: as §1, §2, §3, §4

Oc1ncnc2[nH]ncc12 [allopurinol]
Uric Acid [1]: 22.71 ± 0.27 mg/L
Creatinine [2]: 23 ± 1 µM
